Laboratory results: paper PMC5727211, “Development of Erasin: a chromone-based STAT3 inhibitor which induces apoptosis in Erlotinib-resistant lung cancer cells” (Scientific Reports, 2017)
Blank lines part the entries; values can stand above or below the compound they belong to.

Legend:
[1] = biological target: STAT3 SH2 domain (Homo sapiens, UniProt P40763); experiment: FP-based competitive binding assay, STAT3 SH2 domain; conditions: mean ± s.d., three experiments; for IC50: 1 h with protein, then 1 h with peptide, read-out: STAT3 app. IC50; for inhibition at 80 µM / STAT3 inhibition: at 80 µM
Protocol: (§1) The STAT family display a high degree of homology. […] Vilsmeyer-Haack formylation of 2-hydroxy acetophenones led to 3-formyl chromones, which were subsequently converted to the acyl hydrazones by reaction with hydrazides (Fig. 1). The target molecules were tested for their abilities to inhibit binding of fluorophore-labeled peptides to the SH2 domains of STAT1[24], STAT3[25], and STAT5b[26] in assays based on fluorescence polarization (FP). The more distantly related SH2 domain of the tyrosine kinase Lck served as additional specificity control[27],[28].
Assays were performed essentially as described. In brief, protein was incubated with the test compounds for 1 h at room temperature at the following protein concentrations: STAT1: 400 nM, STAT3: 210 nM, STAT5b: 300 nM, Lck SH2: 35 nM. Subsequently, the corresponding fluorophore-labeled peptide was added: STAT1: (5-carboxyfluorescein)-GpYDKPHVL-OH, derived from the interferon-γ receptor[24]; STAT3: (5-carboxyfluorescein)-GpYLPQTV-NH2, derived from the gp130 subunit of the IL-6 receptor[25]; STAT5b: (5-carboxyfluorescein)-GpYLVLDKW-OH, derived from the erythropoietin receptor[26]; Lck SH2: (5-carboxyfluorescein)-GpYEEIP-OH, derived from the middle-T antigen. After a further hour of incubation, fluorescence polarization was measured in a plate reader (Tecan Infinite F500). Apparent IC50 data shown in Tables 1, 2, and S1 and the inhibition curves shown in Fig. 2a correspond to this time point. The majority of the pipetting work was carried out using a Biomek FXp workstation (Beckman-Coulter). […]

[2] = biological target: T1, STAT1 SH2 domain (Homo sapiens, UniProt P42224); experiment: FP-based competitive binding assay, STAT1 SH2 domain; conditions: mean ± s.d., three experiments; for IC50: 1 h with protein, then 1 h with peptide, read-out: STAT1 app. IC50; for inhibition at 80 µM / STAT1 inhibition: at 80 µM
T1 sequence (P42224 1-750): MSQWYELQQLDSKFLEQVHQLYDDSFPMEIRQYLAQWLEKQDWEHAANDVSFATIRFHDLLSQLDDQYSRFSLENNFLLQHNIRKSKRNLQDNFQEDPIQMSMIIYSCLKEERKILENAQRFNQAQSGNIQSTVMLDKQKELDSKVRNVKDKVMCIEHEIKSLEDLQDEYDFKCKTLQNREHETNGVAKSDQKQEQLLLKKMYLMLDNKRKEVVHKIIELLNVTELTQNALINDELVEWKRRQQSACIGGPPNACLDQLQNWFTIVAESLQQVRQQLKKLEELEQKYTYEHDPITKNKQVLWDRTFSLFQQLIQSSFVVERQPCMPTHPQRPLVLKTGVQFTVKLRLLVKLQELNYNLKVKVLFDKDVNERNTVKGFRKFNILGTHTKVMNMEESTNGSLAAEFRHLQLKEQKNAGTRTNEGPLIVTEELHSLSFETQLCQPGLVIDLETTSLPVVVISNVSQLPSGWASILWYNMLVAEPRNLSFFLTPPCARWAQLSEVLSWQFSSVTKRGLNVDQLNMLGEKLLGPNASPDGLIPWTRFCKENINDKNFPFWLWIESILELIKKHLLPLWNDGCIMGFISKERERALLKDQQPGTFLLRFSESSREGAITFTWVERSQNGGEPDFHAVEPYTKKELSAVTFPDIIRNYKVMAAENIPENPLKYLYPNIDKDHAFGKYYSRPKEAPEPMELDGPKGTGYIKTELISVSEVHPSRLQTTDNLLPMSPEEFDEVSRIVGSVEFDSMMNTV
Protocol: as §1
(§2) Assays were performed essentially as described. In brief, protein was incubated with the test compounds for 1 h at room temperature at the following protein concentrations: STAT1: 400 nM, STAT3: 210 nM, STAT5b: 300 nM, Lck SH2: 35 nM. Subsequently, the corresponding fluorophore-labeled peptide was added: STAT1: (5-carboxyfluorescein)-GpYDKPHVL-OH, derived from the interferon-γ receptor[24]; STAT3: (5-carboxyfluorescein)-GpYLPQTV-NH2, derived from the gp130 subunit of the IL-6 receptor[25]; STAT5b: (5-carboxyfluorescein)-GpYLVLDKW-OH, derived from the erythropoietin receptor[26]; Lck SH2: (5-carboxyfluorescein)-GpYEEIP-OH, derived from the middle-T antigen. After a further hour of incubation, fluorescence polarization was measured in a plate reader (Tecan Infinite F500). Apparent IC50 data shown in Tables 1, 2, and S1 and the inhibition curves shown in Fig. 2a correspond to this time point. The majority of the pipetting work was carried out using a Biomek FXp workstation (Beckman-Coulter). Buffer composition: 10 mM Tris pH 8.0, 50 mM NaCl, 1 mM EDTA, 1 mM dithiothreitol (DTT), 0.1% Nonidet P-40, and 2% DMSO.

[3] = biological target: T2, Lck SH2 (Homo sapiens, UniProt P06239); experiment: FP-based competitive binding assay, Lck SH2 domain; conditions: for Lck inhibition: at 80 µM
T2 construct: STAT1: 400 nM, STAT3: 210 nM, STAT5b: 300 nM, Lck SH2: 35 nM
Protocol: as §1, §2
Supplementary Figures and Table
No Structure app. IC50 [µM] or
Supplementary Table S1: Activities of test compounds in fluorescence polarization assays against the
SH2 domains of Lck. See the Supporting Methods for details. […]

[4] = biological target: T3, STAT5b SH2 domain (Homo sapiens, UniProt P51692); experiment: FP-based competitive binding assay, STAT5b SH2 domain; conditions: mean ± s.d., three experiments; for IC50: 1 h with protein, then 1 h with peptide, read-out: STAT5b app. IC50; for inhibition at 80 µM / STAT5b inhibition: at 80 µM
T3 sequence (P51692 1-787): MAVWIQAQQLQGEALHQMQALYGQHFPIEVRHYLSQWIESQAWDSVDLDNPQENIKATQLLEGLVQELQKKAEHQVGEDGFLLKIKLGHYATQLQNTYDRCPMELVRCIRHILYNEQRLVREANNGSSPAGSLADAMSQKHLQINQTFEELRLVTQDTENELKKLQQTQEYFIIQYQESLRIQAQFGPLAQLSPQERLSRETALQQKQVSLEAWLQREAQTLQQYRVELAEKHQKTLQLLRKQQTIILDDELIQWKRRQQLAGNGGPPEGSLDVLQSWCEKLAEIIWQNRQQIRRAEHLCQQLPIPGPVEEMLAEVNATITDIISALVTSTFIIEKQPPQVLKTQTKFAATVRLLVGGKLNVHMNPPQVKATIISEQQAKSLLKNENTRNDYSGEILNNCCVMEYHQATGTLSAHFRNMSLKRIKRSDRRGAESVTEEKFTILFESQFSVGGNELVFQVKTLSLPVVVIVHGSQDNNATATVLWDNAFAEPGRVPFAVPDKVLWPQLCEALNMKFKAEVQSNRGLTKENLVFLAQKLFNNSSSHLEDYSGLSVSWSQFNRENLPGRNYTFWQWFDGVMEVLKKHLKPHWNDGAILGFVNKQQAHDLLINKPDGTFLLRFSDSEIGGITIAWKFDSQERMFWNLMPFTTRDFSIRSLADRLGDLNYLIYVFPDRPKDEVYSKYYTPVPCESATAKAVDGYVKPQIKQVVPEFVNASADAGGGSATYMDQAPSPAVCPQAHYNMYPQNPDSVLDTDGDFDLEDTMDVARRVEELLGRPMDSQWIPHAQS
Protocol: as §1, §2

[5] = tested on: Erlotinib-resistant HCC-827 cells; experiment: Apoptosis assay (Annexin V/7-AAD flow cytometry), Erlotinib-resistant HCC-827 cells; assay type: cell-based, human; conditions: 24 h
Protocol: Afterwards, the cell culture supernatant from each well was collected. […] The supernatants were then returned to each well to neutralize the Accutase solution and the cells were centrifuged at 3000 rpm, at 4 °C for 5 min. The cell pellets were washed twice with cold PBS and centrifuged again. […] Cells were resuspended in 1 x binding buffer and incubated with PE Annexin V and 7-AAD at 4 °C for 30 min. Apoptosis was measured using an LSR II flow cytometer (BD Bioscience). Experiments were carried out in at least triplicate. […]

[6] = tested on: parental HCC-827 cells; experiment: Apoptosis assay (Annexin V/7-AAD flow cytometry), parental HCC-827 cells; assay type: cell-based, human; conditions: 24 h
Protocol: Afterwards, the cell culture supernatant from each well was collected. […] The supernatants were then returned to each well to neutralize the Accutase solution and the cells were centrifuged at 3000 rpm, at 4 °C for 5 min. The cell pellets were washed twice with cold PBS and centrifuged again. […] Cells were resuspended in 1 x binding buffer and incubated with PE Annexin V and 7-AAD at 4 °C for 30 min. Apoptosis was measured using an LSR II flow cytometer (BD Bioscience). Experiments were carried out in at least triplicate.

Chain of STAT3 SH2 domain (P40763 whole entry, the tested form may be a part): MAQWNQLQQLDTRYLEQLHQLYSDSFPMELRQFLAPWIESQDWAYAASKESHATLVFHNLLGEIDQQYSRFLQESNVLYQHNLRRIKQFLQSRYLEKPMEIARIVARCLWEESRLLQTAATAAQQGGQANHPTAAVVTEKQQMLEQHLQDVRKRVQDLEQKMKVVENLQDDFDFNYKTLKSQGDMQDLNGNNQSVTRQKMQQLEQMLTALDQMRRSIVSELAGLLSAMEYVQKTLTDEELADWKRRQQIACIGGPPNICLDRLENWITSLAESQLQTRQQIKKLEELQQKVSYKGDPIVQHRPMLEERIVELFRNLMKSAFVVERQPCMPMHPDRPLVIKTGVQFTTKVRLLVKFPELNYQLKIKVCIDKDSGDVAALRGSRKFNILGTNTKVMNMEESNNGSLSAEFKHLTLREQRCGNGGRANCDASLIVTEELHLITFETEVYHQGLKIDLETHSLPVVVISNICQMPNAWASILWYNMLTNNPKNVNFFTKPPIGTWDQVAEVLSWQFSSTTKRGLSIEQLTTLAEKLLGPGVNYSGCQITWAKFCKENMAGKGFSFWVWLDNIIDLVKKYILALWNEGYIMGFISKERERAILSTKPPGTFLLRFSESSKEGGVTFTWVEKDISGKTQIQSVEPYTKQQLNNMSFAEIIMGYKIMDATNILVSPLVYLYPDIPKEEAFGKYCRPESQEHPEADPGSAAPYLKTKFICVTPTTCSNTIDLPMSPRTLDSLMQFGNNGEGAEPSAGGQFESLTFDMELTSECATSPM
T2 sequence (P06239 127-224 limits assumed): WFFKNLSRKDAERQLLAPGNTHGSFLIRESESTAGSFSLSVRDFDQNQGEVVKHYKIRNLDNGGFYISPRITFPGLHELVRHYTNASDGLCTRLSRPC

Structure (SMILES): COc1ccc2occ(/C=N/NC(=O)c3cccnc3)c(=O)c2c1 [Compound 11]
IC50 [1]: 65 ± 1 µM | inhibition at 80 µM [3]: 23 ± 2% | inhibition at 80 µM [4]: 30 ± 7% | inhibition at 80 µM [2]: 19 ± 2%

Structure (SMILES): CC(C)c1ccc2occ(/C=N/NC(=O)c3cccnc3)c(=O)c2c1 [Compound 7]
IC50 [1]: 22 ± 1 µM | Lck inhibition [3]: no inhibition | IC50 [4]: 52 ± 12 µM | IC50 [2]: 39 ± 2 µM

Structure (SMILES): O=C(N/N=C/c1coc2ccc(Br)cc2c1=O)c1cccnc1 [Compound 4]
IC50 [1]: 25 ± 1 µM | inhibition at 80 µM [3]: 13 ± 2% | inhibition at 80 µM [4]: 33 ± 7% | inhibition at 80 µM [2]: 36 ± 6%

Structure (SMILES): Cc1ccc2occ(/C=N/NC(=O)c3cccnc3)c(=O)c2c1 [Compound 5]
inhibition at 80 µM [1]: 40 ± 2% | Lck inhibition [3]: no inhibition | IC50 [4]: 32 ± 24 µM | inhibition at 80 µM [2]: 12 ± 3%

Structure (SMILES): O=C(N/N=C/c1coc2ccc([N+](=O)[O-])cc2c1=O)c1cccnc1 [Compound 12]
inhibition at 80 µM [1]: 14 ± 2% | inhibition at 80 µM [3]: 22 ± 6% | STAT5b inhibition [4]: no inhibition at 80 µM | inhibition at 80 µM [2]: 3 ± 3%

Structure (SMILES): CC(C)(C)c1ccc2occ(C=O)c(=O)c2c1 [Compound 8a]
IC50 [1]: 8.9 ± 0.8 µM | IC50 [4]: 27.7 ± 1.5 µM | IC50 [2]: 15 ± 1.4 µM

Structure (SMILES): CCC(C)(C)c1ccc2occ(C=O)c(=O)c2c1 [Compound 9a]
IC50 [1]: 5.3 ± 0.4 µM | IC50 [4]: 34.8 ± 4.2 µM | IC50 [2]: 10.7 ± 1.1 µM

Structure (SMILES): O=C(N/N=C/c1coc2ccc(-c3ccccc3)cc2c1=O)c1cccnc1 [Compound 10]
STAT3 inhibition [1]: 35 ± 5% inhibition at 80 µM | Lck inhibition [3]: no inhibition | STAT5b inhibition [4]: no inhibition at 80 µM | STAT1 inhibition [2]: 36 ± 2% inhibition at 80 µM

Structure (SMILES): O=C(N/N=C/c1coc2ccc(Cl)cc2c1=O)c1cccnc1 [Compound 3]
IC50 [1]: 40 ± 3 µM | inhibition at 80 µM [3]: 6 ± 6% | inhibition at 80 µM [4]: 31 ± 4% | IC50 [2]: 32 ± 11 µM

Structure (SMILES): C#Cc1cccc(Nc2ncnc3cc(OCCOC)c(OCCOC)cc23)c1 [Erlotinib]
apoptosis ([5]; 10 nM): did not show increased apoptosis | increase of the apoptotic rate ([5]; 1 µM): only a twofold increase | apoptosis ([6]; 1 nM): significant increase in apoptosis | induction of apoptosis ([6]; 1 µM): more than tenfold induction of apoptosis

Second part, the compound after the results:

IC50 [1]: 26 ± 5 µM | inhibition at 80 µM [2]: 34 ± 4%
Structure (SMILES): COc1ccc(C(=O)N/N=C/c2coc3ccc(C(C)(C)C)cc3c2=O)cc1 [Compound 15]

IC50 [1]: 39 ± 4 µM | inhibition at 80 µM [2]: 32 ± 0.1%
Structure (SMILES): CC(C)(C)c1ccc2occ(/C=N/NC(=O)c3cccs3)c(=O)c2c1 [Compound 18]

inhibition at 80 µM [1]: 31 ± 8% | inhibition at 80 µM [2]: 10 ± 5%
Structure (SMILES): CC(C)(C)c1ccc2occ(/C=N/NC(=O)c3ccc(F)cc3)c(=O)c2c1 [Compound 20]

inhibition at 80 µM [1]: 4 ± 3%
Structure (SMILES): CC(C)(C)c1ccc2occ(/C=N/NS(=O)(=O)c3ccccc3)c(=O)c2c1 [Compound 23]

IC50 [1]: 50 ± 7 µM | STAT1 inhibition [2]: 9 ± 4% inhibition at 80 µM
Structure (SMILES): CC(C)(C)c1ccc2occ(/C=N/NC(=O)c3ccc[nH]3)c(=O)c2c1 [Compound 19]

IC50 [1]: 14 ± 1 µM | IC50 [2]: 49 ± 2 µM
Structure (SMILES): CC(C)(C)c1ccc2occ(/C=N/NC(=O)c3ccco3)c(=O)c2c1 [Compound 17]

inhibition at 80 µM [1]: 9 ± 3%
Structure (SMILES): CC(C)(C)c1ccc2occ(/C=N/NCc3ccccc3)c(=O)c2c1 [Compound 22]

STAT3 inhibition [1]: 20 ± 2% at 80 µM | STAT1 inhibition [2]: 12 ± 4% inhibition at 80 µM
Structure (SMILES): CC(C)(C)c1ccc2occ(/C=N/NC(=O)c3ccc(Cl)cc3)c(=O)c2c1 [Compound 21]

IC50 [1]: 14 ± 2 µM | IC50 [2]: 35 ± 4 µM
Structure (SMILES): CC(C)(C)c1ccc2occ(/C=N/NC(=O)c3ccccc3)c(=O)c2c1 [Compound 13]

IC50 [1]: 19 ± 1 µM | IC50 [2]: 77 ± 16 µM
Structure (SMILES): CC(C)(C)c1ccc2occ(/C=N/NC(=O)c3ccc(O)cc3)c(=O)c2c1 [Compound 14]

inhibition at 80 µM [1]: 42 ± 2% | inhibition at 80 µM [2]: 15 ± 2%
Structure (SMILES): COc1cccc(C(=O)N/N=C/c2coc3ccc(C(C)(C)C)cc3c2=O)c1 [Compound 16]
